Measured values taken from patent US20130150325A1, “3-(Fluorovinyl)pyrazoles and their use” (BAYER INTELLECTUAL PROPERTY GMBH, priority 2011, published 2013).

system: HCT 116 cells transfected with a luciferase reporter under the control of an HIF-responsive sequence; experiment: HIF-luciferase assay; type: cell-based; settings: Homo sapiens; HCT 116 HIF-luciferase reporter cells, hypoxia chamber (1% O2), 24 h; in some cases means of up to four individual determinations
Description: HCT 116 cells were transfected in a stable manner with a plasmid which contained a luciferase reporter under the control of an HIF-responsive sequence. These cells were sown in microtitre plates [20 000 cells/cavity in RPMI 1640 medium with 10% foetal calf serum (FCS) and 100 μg/ml of hygromycin]. Incubation was carried out overnight under standard conditions (5% CO2, 21% O2, 37° C., moistened). The following morning the cells were incubated with various concentrations of the test substances (0-10 μmol/l) in a hypoxia chamber (1% O2). After 24 h, Bright Glo reagent (Promega, Wisconsin, USA) was added in accordance with the manufacturer's instructions, and after 5 min the luminescence was measured. Cells which were incubated under normoxia served as background controls.
The IC50 values from this assay for representative working examples are listed in the following table (in same cases as means of up to four individual determinations): […]

| SMILES | IC50 |
| --- | --- |
| Cc1cc(/C(F)=C/c2ccc(OC(F)(F)F)cc2)nn1Cc1cccc(C(=O)N2CCN(C3CC3)CC2)c1 [Example 37, (4-Cyclopropylpiperazin-1-yl) {3-[(3-{(Z)-1-fluoro-2-[4-(trifluoromethoxy)phenyl]vinyl}-5-methyl-1H-pyrazol-1-yl)methyl]phenyl}methanone] | 3 nM |
| CC(=O)OC1(c2cccc(Cn3nc(/C(F)=C/c4ccc(C5(C(F)(F)F)CC5)cc4)cc3C)c2)CC1 [Example 46, 1-[3-({3-[(Z)-1-Fluoro-2-{4-[1-(trifluoromethyl)cyclopropyl]phenyl}vinyl]-5-methyl-1H-pyrazol-1-yl}methyl)phenyl]cyclopropyl acetate] | 0.7 nM |
| Cc1cc(/C(F)=C/c2ccc(S(F)(F)(F)(F)F)cc2)nn1Cc1ccnc(N2CCN(C3CC3)CC2)c1 [Example 107, 1-Cyclopropyl-4-{4-[(3-{(Z)-1-fluoro-2-[4-(pentafluoro-λ^6-sulphanyl)phenyl]vinyl}-5-methyl-1H-pyrazol-1-yl)methyl]pyridin-2-yl}piperazine] | 0.3 nM |
| Cc1ccc(Cn2nc(/C=C(\F)c3ccc(OC(F)(F)F)cc3)cc2C)cc1 [Example 111, 3-{(Z)-2-Fluoro-2-[4-(trifluoromethoxy)phenyl]vinyl}-5-methyl-1-(4-methylbenzyl)-1H-pyrazole] | 40 nM |
| Cc1cc(/C=C(\F)c2ccc(OC(F)(F)F)cc2)nn1Cc1cccc(C(=O)N2CCCC2)c1 [Example 114, {3-[(3-{(Z)-2-Fluoro-2-[4-(trifluoromethoxy)phenyl]vinyl}-5-methyl-1H-pyrazol-1-yl)methyl]-phenyl}(pyrrolidin-1-yl)methanone] | 40 nM |
| Cc1cc(/C(F)=C/c2ccc(C3(C(F)(F)F)CC3)cc2)nn1Cc1cccc(C2(O)CC2)c1 [Example 51, 1-[3-({3-[(Z)-1-Fluoro-2-{4-[1-(trifluoromethyl)cyclopropyl]phenyl}vinyl]-5-methyl-1H-pyrazol-1-yl}methyl)phenyl]cyclopropanol] | 1 nM |
| Cc1cc(/C(F)=C/c2ccc(OC(F)(F)F)cc2)nn1Cc1cccc(C(F)(F)CO)c1 [Example 61, 2,2-Difluoro-2-{3-[(3-{(Z)-1-fluoro-2-[4-(trifluoromethoxy)phenyl]vinyl}-5-methyl-1H-pyrazol-1-yl)methyl]phenyl}ethanol] | 4 nM |
| Cc1cc(/C(F)=C/c2ccc(OC(F)(F)F)cc2)nn1Cc1cccc(C(=O)N2CCN(C)CC2)c1 [Example 42, {3-[(3-{(Z)-1-Fluoro-2-[4-(trifluoromethoxy)phenyl]vinyl}-5-methyl-1H-pyrazol-1-yl)methyl]-phenyl}(4-methylpiperazin-1-yl)methanone] | 4 nM |
| Cc1cc(/C(F)=C/c2ccc(C3(C(F)(F)F)CC3)cc2)nn1Cc1cccc(C(F)(F)CO)c1 [Example 63, 2,2-Difluoro-2-[3-({3-[(Z)-1-fluoro-2-{4-[1-(trifluoromethyl)cyclopropyl]phenyl}vinyl]-5-methyl-1H-pyrazol-1-yl}methyl)phenyl]ethanol] | 3 nM |
| Cc1cc(/C(F)=C/c2ccc(C3(C(F)(F)F)CC3)cc2)nn1Cc1ccnc(N2CCN(C3CC3)CC2)c1 [Example 105, 1-Cyclopropyl-4-[4-({3-[(Z)-1-fluoro-2-{4-[1-(trifluoromethyl)cyclopropyl]phenyl}vinyl]-5-methyl-1H-pyrazol-1-yl}methyl)pyridin-2-yl]piperazine] | 0.5 nM |
| Cc1cc(/C(F)=C/c2ccc(C3(C(F)(F)F)CC3)cc2)nn1Cc1cccc(N2CC(O)C2)c1 [Example 17, 1-[3-({3-[(Z)-1-Fluoro-2-{4-[1-(trifluoromethyl)cyclopropyl]phenyl}vinyl]-5-methyl-1H-pyrazol-1-yl}methyl)phenyl]azetidin-3-ol] | 1 nM |
| Cc1cc(/C(F)=C/c2ccc(CN(C(C)C)C(C)C)cc2)nn1Cc1ccnc(N2CCN(C3CC3)CC2)c1 [Example 109, N-{4-[(Z)-2-(1-{[2-(4-Cyclopropylpiperazin-1-yl)pyridin-4-yl]methyl}-5-methyl-1H-pyrazol-3-yl)-2-fluorovinyl]benzyl}-N-isopropylpropane-2-amine] | 1.5 nM |
| Cc1cc(/C(F)=C/c2ccc(C(C)(C)C(F)(F)F)c(F)c2)nn1Cc1cccc(C2(CO)CC2)c1 [Example 58, (1-{3-[(3-{(Z)-1-Fluoro-2-[3-fluoro-4-(1,1,1-trifluoro-2-methylpropan-2-yl)phenyl]vinyl}-5-methyl-1H-pyrazol-1-yl)methyl]phenyl}cyclopropyl)methanol] | 2 nM |

The remaining lines, values ahead:

| IC50 | SMILES |
| --- | --- |
| 2 nM | CNc1ccc(Cn2nc(/C(F)=C/c3ccc(C(C)C)cc3)cc2C)cn1 [Example 89, 5-({3-[(Z)-1-Fluoro-2-(4-isopropylphenyl)vinyl]-5-methyl-1H-pyrazol-1-yl}methyl)-N-methyl-pyridine-2-amine] |
| 0.5 nM | Cc1cc(/C(F)=C/c2ccc(C(C)(C)C(F)(F)F)cc2)nn1Cc1cccc(N2CCC(O)CC2)c1 [Example 13, 1-{3-[(3-{(Z)-1-Fluoro-2-[4-(1,1,1-trifluoro-2-methylpropan-2-yl)phenyl]vinyl}-5-methyl-1H-pyrazol-1-yl)methyl]phenyl}piperidin-4-ol] |
| 0.8 nM | Cc1cc(/C(F)=C/c2ccc(C(C)(C)C(F)(F)F)cc2)nn1Cc1cccc(C2(O)CC2)c1 [Example 49, 1-{3-[(3-{(Z)-1-Fluoro-2-[4-(1,1,1-trifluoro-2-methylpropan-2-yl)phenyl]vinyl}-5-methyl-1H-pyrazol-1-yl)methyl]phenyl}cyclopropanol] |
| 0.3 nM | CNc1ccc(Cn2nc(/C(F)=C/c3ccc(S(F)(F)(F)(F)F)cc3)cc2C)cn1 [Example 91, 5-[(3-{(Z)-1-Fluoro-2-[4-(pentafluoro-λ^6-sulphanyl)phenyl]vinyl}-5-methyl-1H-pyrazol-1-yl)-methyl]-N-methylpyridine-2-amine] |
| 5 nM | Cc1cc(/C(F)=C/c2ccc(C(C)(C)C(F)(F)F)cc2)nn1Cc1cccc(C(=O)N2CCCC2)c1 [Example 28, {3-[(3-{(Z)-1-Fluoro-2-[4-(1,1,1-trifluoro-2-methylpropan-2-yl)phenyl]vinyl}-5-methyl-1H-pyrazol-1-yl)methyl]phenyl}(pyrrolidin-1-yl)methanone] |
| 0.4 nM | CNc1ccc(Cn2nc(/C(F)=C/c3ccc(C(C)(C)C(F)(F)F)cc3)cc2C)cn1 [Example 83, 5-[(3-{(Z)-1-Fluoro-2-[4-(1,1,1-trifluoro-2-methylpropan-2-yl)phenyl]vinyl}-5-methyl-1H-pyrazol-1-yl)methyl]-N-methylpyridine-2-amine] |
| 30 nM | Cc1ccc(Cn2nc(/C(F)=C/c3ccc(OC(F)(F)F)cc3)cc2C)cc1 [Example 2, 3-{(Z)-1-Fluoro-2-[4-(trifluoromethoxy)phenyl]vinyl}-5-methyl-1-(4-methylbenzyl)-1H-pyrazole] |
| 3 nM | CNc1ccc(Cn2nc(/C(F)=C/c3ccc(OC(F)(F)F)c(Cl)c3)cc2C)cn1 [Example 81, 5-[(3-{(Z)-2-[3-Chloro-4-(trifluoromethoxy)phenyl]-1-fluorovinyl}-5-methyl-1H-pyrazol-1-yl)-methyl]-N-methylpyridine-2-amine] |
| 5 nM | Cc1cc(/C(F)=C/c2ccc(C(C)(C)C(F)(F)F)cc2)nn1Cc1cccc(C(=O)N2CCC(O)CC2)c1 [Example 34, {3-[(3-{(Z)-1-Fluoro-2-[4-(1,1,1-trifluoro-2-methylpropan-2-yl)phenyl]vinyl}-5-methyl-1H-pyrazol-1-yl)methyl]phenyl}(4-hydroxypiperidin-1-yl)methanone] |
| 40 nM | Cc1cc(/C(F)=C/c2ccc(C(C)(C)C(F)(F)F)cc2)nn1Cc1cccc(Br)c1 [Example 7, 1-(3-Bromobenzyl)-3-{(Z)-1-fluoro-2-[4-(1,1,1-trifluoro-2-methylpropan-2-yl)phenyl]vinyl}-5-methyl-1H-pyrazole] |
| 5 nM | CNc1ccc(Cn2nc(/C(F)=C/c3ccc(SC(C)(C)C(=O)N4CCCC4)cc3)cc2C)cn1 [Example 93, 2-({4-[(Z)-2-Fluoro-2-(5-methyl-1-{[6-(methylamino)pyridin-3-yl]methyl}-1H-pyrazol-3-yl)-vinyl]phenyl}sulphanyl)-2-methyl-1-(pyrrolidin-1-yl)propan-1-one] |
| 2.8 nM | CNc1ccc(Cn2nc(/C(F)=C/c3ccc(OC(F)(F)F)c(F)c3)cc2C)cn1 [Example 80, 5-[(3-{(Z)-1-Fluoro-2-[3-fluoro-4-(trifluoromethoxy)phenyl]vinyl}-5-methyl-1H-pyrazol-1-yl)-methyl]-N-methylpyridine-2-amine] |
| 20 nM | COC(=O)c1cccc(Cn2nc(/C(F)=C/c3ccc(OC(F)(F)F)cc3)cc2C)c1 [Example 18, Methyl 3-[(3-{(Z)-1-fluoro-2-[4-(trifluoromethoxy)phenyl]vinyl}-5-methyl-1H-pyrazol-1-yl)methyl]benzoate] |
| 0.4 nM | Cc1cc(/C(F)=C/c2ccc(C(C)(C)C(F)(F)F)cc2)nn1Cc1ccnc(N2CCN(C3CC3)CC2)c1 [Example 104, 1-Cyclopropyl-4-{4-[(3-{(Z)-1-fluoro-2-[4-(1,1,1-trifluoro-2-methylpropan-2-yl)phenyl]vinyl}-5-methyl-1H-pyrazol-1-yl)methyl]pyridin-2-yl}piperazine] |
| 1 nM | Cc1cc(/C(F)=C/c2ccc(C(C)(C)C(F)(F)F)cc2)nn1Cc1cccc(C2(CO)CC2)c1 [Example 57, (1-{3-[(3-{(Z)-1-Fluoro-2-[4-(1,1,1-trifluoro-2-methylpropan-2-yl)phenyl]vinyl}-5-methyl-1H-pyrazol-1-yl)methyl]phenyl}cyclopropyl)methanol] |
